Holding throughout (type): biochemical
Assay [1] relates to human plasma deficient of FVII. Briefly: APTT clotting assay, FVII-deficient plasma. On the procedure: (§1) For the PT assay, thromboplastin-D was reconstituted according to the manufacturer’s directions and warmed to 37 °C. […] After incubation for 4 min at 37 °C, clotting was initiated by adding 100 μL of prewarmed 25 mM CaCl2 and the time to clotting was noted. […] To determine the in vitro effect on the APTT of deficient human plasmas, the APTT assay was repeated, using human plasmas deficient of factor VII (FVII), factor IX (FIX), FXI, or factor XII (FXII). […] The positive control used in APTT and PT assays was rivaroxaban, a clinically used FXa inhibitor. Under the conditions reported, rivaroxaban doubled the APTT and PT at concentrations of 0.123 ± 0.003 µM and 0.193 ± 0.043 µM, respectively.

In assay [2] the test system is human plasma deficient of FXII. Briefly: APTT clotting assay, FXII-deficient plasma. On the procedure: as §1
For the next assay, the system named is normal human plasma. Briefly: TT clotting assay, normal human plasma. The conditions noted are these: for concentration to double the TT: normal human plasma (text).
The target in the next assay is T1, human FXIIIa (Homo sapiens, UniProt P00488).
T1 construct: followed by the addition of 2 μL human FXIIIa (0.3 μM); purchased Haematologic Technologies, Inc
T1 sequence (P00488 39-732 limits assumed): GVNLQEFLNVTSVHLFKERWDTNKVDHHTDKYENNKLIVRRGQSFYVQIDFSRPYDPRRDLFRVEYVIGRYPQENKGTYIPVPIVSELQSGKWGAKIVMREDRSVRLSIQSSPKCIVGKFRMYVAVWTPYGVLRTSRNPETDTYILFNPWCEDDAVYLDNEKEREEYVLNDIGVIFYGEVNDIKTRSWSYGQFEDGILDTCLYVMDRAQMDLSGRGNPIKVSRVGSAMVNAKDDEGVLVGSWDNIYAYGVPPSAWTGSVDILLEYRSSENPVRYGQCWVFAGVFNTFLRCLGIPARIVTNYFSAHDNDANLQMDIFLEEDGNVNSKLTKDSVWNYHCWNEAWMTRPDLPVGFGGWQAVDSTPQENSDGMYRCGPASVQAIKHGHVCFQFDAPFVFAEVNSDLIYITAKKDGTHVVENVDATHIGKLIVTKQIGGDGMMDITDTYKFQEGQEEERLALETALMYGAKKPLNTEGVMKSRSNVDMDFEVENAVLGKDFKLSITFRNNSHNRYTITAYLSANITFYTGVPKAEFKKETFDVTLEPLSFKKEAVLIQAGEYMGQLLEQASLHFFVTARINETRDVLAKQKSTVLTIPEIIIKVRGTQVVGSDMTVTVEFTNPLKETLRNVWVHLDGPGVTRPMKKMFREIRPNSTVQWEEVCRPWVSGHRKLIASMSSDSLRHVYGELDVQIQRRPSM
Briefly: FXIIIa fluorescence-based transglutamination assay. Particulars: pH 7.4, 37 °C. On the procedure: (§2) Direct inhibition of the human coagulation transglutaminase FXIIIa was also studied using a fluorescence-based transglutamination assay as reported in the literature.
The activity of FXIIIa was evaluated by the addition of 5 μL dansylcadaverine (2 mM) and measuring the initial rate of increase in fluorescence emission (λEx. = 360 nm and λEm. = 490 nm). In all assays, the dose dependence of the fractional residual enzyme activity, if any, was analyzed using Equation (1) above to obtain the apparent concentration of the test molecule required to reduce the enzyme activity to 50% of its initial value. All assays were performed three times.

For assay [3], the target named is T2, human neutrophil elastase (Homo sapiens, UniProt P08246).
T2 construct: purchased Elastin Products Company
T2 sequence (P08246 30-247 limits assumed): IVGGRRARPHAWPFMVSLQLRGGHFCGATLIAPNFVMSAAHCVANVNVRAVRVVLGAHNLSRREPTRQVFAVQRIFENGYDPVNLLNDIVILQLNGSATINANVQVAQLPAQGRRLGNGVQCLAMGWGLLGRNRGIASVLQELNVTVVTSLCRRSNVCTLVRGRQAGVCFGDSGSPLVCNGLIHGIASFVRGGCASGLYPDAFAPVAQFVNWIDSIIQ
Put plainly: Neutrophil elastase chromogenic substrate hydrolysis assay. Particulars: pH 7.4. As for the experimental part:
as §2
(§3) After 10 min incubation, 5 µL FXIa substrate (6.9 mM stock concentration) was rapidly added and the residual FXIa activity was measured from the initial rate of increase in absorbance at 405 nm. Assays were performed in similar fashion with trypsin and chymotrypsin. Stock concentrations used were 18.9 µg/mL (trypsin) and 22.7 mM (S-2222) for bovine trypsin assay (final volume was 200 µL) and 2 µg/mL (chymotrypsin) and 16.2 mM (N-Succinyl-Ala-Ala-Pro-Phe-p-nitroanilide) for bovine chymotrypsin assay (final volume was 200 µL). The buffer used for FXIa, trypsin, chymotrypsin assays was 50 mM Tris-HCl buffer, pH 7.4, containing 150 mM NaCl, 2.5 mM CaCl2, 0.1% PEG8000, and 0.02% Tween80. Neutrophil elastase inhibition assay was performed in a 96-well plate with a final volume of 100 µl with 0.125 M 4-(2-hydroxyethyl)-1-piperazineethanesulfonic acid (HEPES) buffer, pH 7.4 containing 0.125% Triton-X 100, as reported earlier. […] After incubation, 3 µL neutrophil elastase substrate (S-1384; 25 mM stock conc.) was rapidly added and the residual enzyme activity measured from the initial rate of increase in the absorbance at 405 nm.

A further assay concerns the target T3, bovine chymotrypsin (Bos taurus, UniProt P00766).
T3 construct: purchased Millipore-Sigma
Put plainly: Chymotrypsin chromogenic substrate hydrolysis assay. Particulars: pH 7.4. On the procedure:
as §2, §3

Another assay addresses human plasmin (Homo sapiens, UniProt P00747). Briefly: Michaelis-Menten kinetics of Spectrozyme PL hydrolysis by plasmin. Particulars: for VMAX of Spectrozyme PL hydrolysis: pH 7.4, 37 °C. As for the experimental part: The initial rate of Spectrozyme FXa hydrolysis by human FXa (87 nM) or that of Spectrozyme PL hydrolysis by human plasmin (120 nM) was monitored from the linear increase in absorbance at 405 nm corresponding to less than 10% consumption of the substrate. […] The data were fitted by Michaelis-Menten Equation (2) to determine KM (substrate affinity to the enzyme) and VMAX (maximum velocity of enzyme reaction). (2) Vi=VMAX×[S]/KM+[S]

Consider one compound from publication PMC6600542 (Molecules, 2019).

“And” between values parts separate entries of the source, which are not always exact repeats. Identical values can stand only once.

human plasmin, sequence (P00747 581-810 limits assumed): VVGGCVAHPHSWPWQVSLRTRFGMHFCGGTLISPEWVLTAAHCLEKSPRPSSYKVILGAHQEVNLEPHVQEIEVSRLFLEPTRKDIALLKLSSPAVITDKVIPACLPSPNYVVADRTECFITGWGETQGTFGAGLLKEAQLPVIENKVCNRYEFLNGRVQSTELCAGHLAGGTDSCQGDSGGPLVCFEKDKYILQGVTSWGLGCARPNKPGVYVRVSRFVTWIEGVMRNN
human plasmin, sequence (P00747 97-580 partner limits assumed): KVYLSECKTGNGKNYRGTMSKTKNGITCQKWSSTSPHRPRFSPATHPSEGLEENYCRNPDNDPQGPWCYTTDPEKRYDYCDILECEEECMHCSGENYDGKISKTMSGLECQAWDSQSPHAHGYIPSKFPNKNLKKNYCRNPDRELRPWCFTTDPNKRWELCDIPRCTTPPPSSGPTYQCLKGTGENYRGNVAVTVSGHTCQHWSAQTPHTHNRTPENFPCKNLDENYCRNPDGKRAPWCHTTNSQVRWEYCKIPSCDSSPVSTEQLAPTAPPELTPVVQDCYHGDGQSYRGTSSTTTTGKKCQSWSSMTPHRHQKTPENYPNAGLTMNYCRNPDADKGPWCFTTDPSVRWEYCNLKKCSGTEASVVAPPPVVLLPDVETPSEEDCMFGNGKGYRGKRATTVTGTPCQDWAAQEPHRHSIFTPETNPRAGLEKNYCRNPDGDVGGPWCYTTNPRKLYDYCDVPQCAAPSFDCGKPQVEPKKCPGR

Turning to `N=C(N)c1ccc(OCCCCCOc2ccc(C(=N)N)cc2)cc1` [pentamidine isethionate, 4,4′-(pentane-1,5-diylbis(oxy))-dibenzimidamide], the “APTTEC2×, concentration to double clotting time” value is recorded as 26.71 ± 0.50 µm in assay [1] and 27.05 ± 6.05 µm in assay [2]. Further, the “TTEC2×, concentration to double clotting time” value in the assay with normal human plasma (TT assay, normal human plasma) is listed as 158.17 ± 30.87 µm. Further, the “concentration to double the TT” value with normal human plasma is 158.17 µM and 158.17 ± 30.87 µM; in the assay on normal human plasma (listed as pentamidine) it was greater than 150 µM. In addition, the IC50 is greater than 50 µM against human FXIIIa, greater than 100 µM in assay [3] and greater than 1750 µM against bovine chymotrypsin. The “VMAX of Spectrozyme PL hydrolysis” value at human plasmin (10 µM pentamidine isethionate) is listed as 78.7 ± 2.0 mAU/min; at human plasmin (20 µM pentamidine isethionate), 88.4 ± 1.0 mAU/min; on human plasmin (50 µM pentamidine isethionate), 92.9 ± 3.2 mAU/min; at human plasmin (100 µM pentamidine isethionate) it was 90.9 ± 6.5 mAU/min. The “type of inhibition of plasmin” value on human plasmin (Michaelis-Menten kinetics) was “competitively inhibits”. For the same compound, the “increase of KM for Spectrozyme PL” value at human plasmin (inhibitor 100 μM vs absence) was ~ 13.9 fold.

In general, IC50 refers to the point on the concentration scale where inhibition reaches its midpoint. Lower therefore signals inhibition by little substance.
